In ChEMBL document CHEMBL3886901, “Substituted azoles, antiviral active component, pharmaceutical composition, method for preparation and use thereof” (2016):

Assay: Immumoenzymatic Assay: Solutions of the tested compounds in DMEM medium {DMEM) 1x; Source: Cellgro; Catalogue: 10-013-CV} were prepared immediately before use. Eleven serial three fold dilutions with variation of concentrations from 20 nM to 0.2 pM were prepared. In 4 hours after seeding, serial dilutions of the compounds were added to the cells (100 ul to each well). Final concentration of tested compounds was varied from 10 nM to 0.1 pM, and DMSO4 0.5%. If it was necessary, higher concentrations of the disclosed azoles were investigated. Each dilution of the compound was tested on two identical wells. Then the cells were incubated for three days at 37° C./5% CO2 and fixed by addition of acetone/methanol (1:1) mixture in amount of 250 ul/well. In 1 min the cells were washed 3 times with PBS (Phosphate Buffered Saline) solution. Then the cells were blocked by addition of 10% fetal calf serum in PBS solution in amount of 150 ul/well for 1 h at room temperature. Then, the cells were incubated with mouse monoclonal antibodies to cor-antigen HCV, don C7-50 (Source: Affinity BioReagents; Catalogue: MA1-080) (100 ul/well, working dilution 1:500 in 10% fetal calf serum in PBS solution) for 2 h at 37° C. The cells were washed 6 times with PBS/0.05% Tween 20 solution, then, they were incubated for 1 h with goat anti-mouse immunoglobulin antibodies (conjugated with horseradish peroxidase, 100 ul/well, working dilution 1:2500 in 10% fetal calf serum in PBS solution). The cells were washed 6 times with PBS/0.05% Tween 20 solution, once with PBS solution, after that substrate (1 tablet of o-phenylenediamine (oPD)+12 ml citrate/phosphate buffer+5 ul 30% H2O2) in amount of 100 ul/well was added. The plates were kept for 30 min in the dark at room temperature. The reaction was arrested by the addition of 2N H2SO4 in amount of 100 ul/well, and optical density (wavelength 490 nm) was measured by means of multiscan plate reader Victor3 V 1420 (Perkin Elmer). IC50 values (azole concentration, lowering the level of virus RNA-replicon on 50%) for every tested azole were calculated with the help of XLfit 4 program.
Format: cell-based
Conditions: not given

Compound COC(=O)N[C@H](C(=O)N1CCC[C@H]1c1nc(C#CC#Cc2ccc(-c3c[nH]c([C@@H]4CCCN4C(=O)[C@@H](NC(=O)OC)C(C)C)n3)cc2)c[nH]1)C(C)C has an IC50 of 4 pM.

Same assay, conditions: 4 h

COC(=O)N[C@H](C(=O)N1CCC[C@H]1c1nc(C#CC#Cc2ccc3cc(-c4c[nH]c([C@@H]5CCCN5C(=O)[C@@H](NC(=O)OC)C(C)C)n4)ccc3c2)c[nH]1)C(C)C and COC(=O)N[C@@H](C(=O)N1CCC[C@@H]1c1ncc(C#CC#Cc2ccc3cc(-c4cnc([C@H]5CCCN5C(=O)[C@H](NC(=O)OC)C(C)C)[nH]4)ccc3c2)[nH]1)C(C)C are within 1.5-fold of each other in IC50: 3.6 pM for the first, 4.6 pM for the second.

Compared with COC(=O)N[C@H](C(=O)N1CCC[C@@H]1c1nc(C#CC#Cc2ccc(-c3c[nH]c([C@@H]4CCCN4C(=O)[C@@H](NC(=O)OC)C(C)C)n3)cc2)c[nH]1)c1ccccc1, COC(=O)N[C@@H](C(=O)N1CCC[C@H]1c1nc(-c2ccc(C#CC#Cc3c[nH]c([C@H]4CCCN4C(=O)[C@H](NC(=O)OC)C(C)C)n3)cc2)c[nH]1)c1ccccc1 is 1.5-fold higher in IC50: 5.4 pM for the first, 8.2 pM for the second.

For COC(=O)N[C@H](C(=O)N1CCC[C@H]1c1nc(-c2ccc(C#CC#Cc3c[nH]c([C@H]4CCCN4C(=O)[C@H](NC(=O)OC)C(C)C)n3)cc2)c[nH]1)c1ccccc1, the IC50 was 1.8 pM.
